Results on five substances are retold here after publication PMC9054013, “FCHO controls AP2’s initiating role in endocytosis through a PtdIns(4,5)P2-dependent switch” (Science Advances, 2022).

One assay concerns the target T1, Cμ2.
T1 construct: Surface representations of the Cμ2 subdomain structure; His6; made in house; host or cells: Escherichia coli BL21 plyS
Particulars: read-out: KD of YxxΦ cargo peptide binding to Cμ2; cited from earlier work. An excerpt:
page 20: Fig.S8 Details of FCHO C block binding to α -appendage and to Cµ2 A, B FCHO1 C block (claret) bound to AP2 α-appendage (blue). […] B 1.4 Å resolution 2Fo-Fc map contoured at 1.6σ. An apo structure of the α-appendage was used as MR search model (PDB 1W80 without ligands) – the direction of the peptide chain is clearly opposite to that of the published DP[FW], FxDxF motif/α-appendage complexes. C, D FCHO2 C block (claret ...

The target in another assay is T2, AP2 α-appendage (Mus musculus, UniProt P17427).
T2 construct: GST-tagged Cμ2 and α-appendage proteins were made as in ([51]); GST (cleaved yes); made in house; host or cells: Escherichia coli BL21 plyS
The experiment in a line: Isothermal titration calorimetry with α-appendage. The class given is binding. Conditions: ITC. Background: ITC needs no label: the signal is the heat of the interaction.

The test system of assay [1] is BR4-mutated (K339A, K341A, K343A, and K345A) His6-MBP-Cμ2. The experiment in a line: GST pull-down of BR4-mutated His6-MBP-Cμ2. The class given is binding. Conditions: Coomassie SDS-PAGE. As for the experimental part:
A measured amount of GST or GST-fusion protein was immobilized onto 60 μl of 50% slurry of GSH Sepharose beads in microfuge tubes and the volume made up to 750 μl with buffer. After incubation at 4°C with continuous mixing, the Sepharose beads were recovered by centrifugation (10,000g for 1 min), and the supernatants were removed. Each bead pellet was washed three times with cold assay buffer, and most of the buffer was carefully aspirated, leaving a final equivalent volume of ~50 μl.

Where no end group is shown, it is not given here.

T2 sequence (P17427 701-938 limits assumed): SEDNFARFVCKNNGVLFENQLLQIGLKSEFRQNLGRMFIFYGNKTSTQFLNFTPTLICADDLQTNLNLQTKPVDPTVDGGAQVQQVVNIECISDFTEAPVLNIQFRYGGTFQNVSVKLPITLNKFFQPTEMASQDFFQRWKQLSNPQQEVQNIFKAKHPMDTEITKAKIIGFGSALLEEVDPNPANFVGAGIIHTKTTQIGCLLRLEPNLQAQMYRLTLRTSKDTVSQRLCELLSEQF

One may read the Kd as the constant that tells how readily two partners part at equilibrium. For the substance “DYQRLN [TGN38, TGN38 YxxΦ cargo peptide (DYQRLN)]”, the Kd on Cμ2 is ~2 µM.
As to “FCHO1 C: GST-FCHO1 C (residues 414 to 444), Fig. 4B construct ({GST}-SAPRTSSCAERLQSEEQVSKNLFGPPLESAF; UniProt O14526 414-444, looked up, fragment)”, the “n (stoichiometry) of C block peptide binding to α-appendage” value with AP2 α-appendage turned out to be 1.0.
In the case of “FCHO2 C: GST-FCHO2 C (residues 413 to 444), Fig. 4B construct ({GST}-SAPPNEKGTSDLLAWDPLFGPSLDSSSSSSLT; UniProt Q0JRZ9 413-444, looked up, fragment)”, the “n (stoichiometry) of C block peptide binding to α-appendage” value in the assay with AP2 α-appendage is 1.0.
SDLLAWDPLFG [FCHO2 C peptide]: on AP2 α-appendage (100 mM tris pH 7.4, 150 mM NaCl, 0.25 mM TCEP, 12°C, mean ± SEM, minimum three independent runs, read-out: KD of C block peptide binding to α-appendage), the Kd lay within 100 to 200 µM.
For “SERINC3-L10: GST SERINC-L10 (residues 354 to 404), Serinc3 loop binding Cμ2 only at BR4 (RTSTNSQVDKLTLSGSDSVILGDTTTSGASDEEDGQPRRAVDNEKEGVQYS; also: GST fusion, end not given here)”, the “binding to BR4-mutated Cμ2 compared with WT Cμ2” value in assay [1] is listed as “severely inhibited”.
